pIC50: −log10 of the molar value. Counter-ions that a name gives are not always drawn. Like-named read-outs stand apart in the source and are kept apart here.
Columns and labels:
[1] = molecular target: acetylcholinesterase (Homo sapiens, UniProt P22303); assay: biochemical
[2] = molecular target: butyrylcholinesterase (Homo sapiens, UniProt P06276); assay: biochemical
[3] = read-out: Acetylcholinesterase IC-50
[4] = read-out: Butyrylcholinesterase IC-50

Sequence of butyrylcholinesterase (P06276 29-602): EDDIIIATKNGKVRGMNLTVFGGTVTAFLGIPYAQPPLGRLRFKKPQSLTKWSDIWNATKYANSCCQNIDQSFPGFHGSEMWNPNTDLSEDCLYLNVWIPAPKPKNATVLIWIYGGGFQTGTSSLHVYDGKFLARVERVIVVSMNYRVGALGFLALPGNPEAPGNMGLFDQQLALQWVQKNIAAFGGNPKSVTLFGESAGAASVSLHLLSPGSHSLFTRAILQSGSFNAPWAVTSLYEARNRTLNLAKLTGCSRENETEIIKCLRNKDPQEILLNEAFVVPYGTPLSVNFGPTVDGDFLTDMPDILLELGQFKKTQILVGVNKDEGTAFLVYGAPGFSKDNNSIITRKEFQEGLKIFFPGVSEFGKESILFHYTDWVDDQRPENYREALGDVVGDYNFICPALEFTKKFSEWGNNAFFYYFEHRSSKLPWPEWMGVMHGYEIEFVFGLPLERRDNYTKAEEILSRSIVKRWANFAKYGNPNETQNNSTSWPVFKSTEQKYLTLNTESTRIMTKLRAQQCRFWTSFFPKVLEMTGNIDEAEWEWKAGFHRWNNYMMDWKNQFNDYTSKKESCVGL
Sequence of acetylcholinesterase (P22303 32-614, species assumed): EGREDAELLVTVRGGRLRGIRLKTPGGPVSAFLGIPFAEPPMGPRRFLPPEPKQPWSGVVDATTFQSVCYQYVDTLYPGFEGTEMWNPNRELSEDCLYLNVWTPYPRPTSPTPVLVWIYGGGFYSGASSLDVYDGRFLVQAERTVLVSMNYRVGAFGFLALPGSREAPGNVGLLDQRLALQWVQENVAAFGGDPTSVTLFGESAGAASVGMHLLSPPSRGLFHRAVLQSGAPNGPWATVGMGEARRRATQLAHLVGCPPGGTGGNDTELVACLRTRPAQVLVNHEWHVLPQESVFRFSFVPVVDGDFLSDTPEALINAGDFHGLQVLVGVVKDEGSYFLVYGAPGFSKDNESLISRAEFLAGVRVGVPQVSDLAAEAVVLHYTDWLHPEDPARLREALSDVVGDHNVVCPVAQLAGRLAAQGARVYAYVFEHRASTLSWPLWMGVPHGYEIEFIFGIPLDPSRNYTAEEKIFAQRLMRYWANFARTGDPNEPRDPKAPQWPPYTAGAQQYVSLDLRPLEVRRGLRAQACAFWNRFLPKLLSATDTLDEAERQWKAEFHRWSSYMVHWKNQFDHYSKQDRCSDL

SMILES	pIC50 [1, 3]	pIC50 [2, 4]	pIC50 [1]	pIC50 [2]
COc1cc(Br)c2c3c1O[C@@H]1C[C@H](O)C=C[C@]31CCN(CCCN)C2 [Example 10, (4aR,6S,8aR)-11-(4-aminopropyl)-3-methoxy-5,6,9,10,11,12-hexahydro-4aH-[1]benzofuro[3a,3,2-et][2]benzazepin-6-ol, methane sulfonate]	< 4.00	< 4.00		
CNC(=S)N1CC[C@]23C=C[C@@H](O)C[C@H]2Oc2c(OC)cc(Br)c(c23)C1 [Example 11, (4aR,6S,8aR)-1-bromo-4a,5,9,10-tetrahydro-6-hydroxy-3-methoxy-6H-[1]benzofuro-[3a,3,2-et][2]benzazepine-11(12H)-thiocarbonic acid methylamide]	< 4.00	< 4.00		
COc1ccc2c3c1O[C@H]1C[C@H](O)C=C[C@@]31CCN(C(=O)NC(C)C)C2 [Example 14]	< 4.00	< 4.00		
COc1ccc2c3c1O[C@H]1C[C@H](O)C=C[C@@]31CCN(c1ncccn1)C2 [Example 16, (4aS,6S,8aS)-4a,5,9,10,11,12-hexahydro-3-methoxy-11-(2-pyrimidinyl)-6H-[1]benzofuro[3a,3,2-ef][2]benzazepin-6-ol]	< 4.00	< 4.00		
C#CCN1CC[C@@]23C=C[C@@H](O)C[C@@H]2Oc2c(OC)ccc(c23)C1 [Example 18, (4aS,6S,8aS)-4a,5,9,10,11,12-hexahydro-3-methoxy-11-propargyl-6H-[1]benzofuro[3a,3,2-ef][2]benzazepin-6-ol]	< 4.00	< 4.00		
C=CCNC(=S)N1CC[C@@]23C=C[C@@H](O)C[C@@H]2Oc2c(OC)ccc(c23)C1 [Example 20, (4aS,6S,8aS)-6-hydroxy-3-methoxy-4a,5,9,10-tetrahydro-6H-[1]benzofuro[3a,3,2-ef][2]benzazepine-11(12H)-thiocarbonic acid allylamide]	< 4.00	< 4.00		
COc1ccc2c3c1O[C@H]1C[C@H](O)C=C[C@@]31CCN(C(N)=O)C2 [Example 21, (4aS,6S,8aS)-4a,5,9,10-tetrahydro-6-hydroxy-3-methoxy-6H-[1]benzofuro[3a,3,2-ef][2]benzazepine-11(12H)-carboxamide]	< 4.00	< 4.00		
COc1ccc2c3c1O[C@@H]1C[C@@H](O)C=C[C@]31CCN(C(N)=O)C2 [Example 25, (4aR,6R,8aR)-4a,5,9,10-tetrahydro-6-hydroxy-3-methoxy-6H-[1]benzofuro[3a,3,2-ef][2]benzazepine-11(12H)-carboxamide]	< 4.00	< 4.00		
CCN1CC[C@]23C=C[C@H](O)C[C@H]2Oc2c(OC)ccc(c23)C1 [Example 26, (4aR,6R,8aR)-4a,5,9,10,11,12-hexahydro-3-methoxy-11-ethyl-6H-[1]benzofuro[3a,3,2,ef][2]benzazepin-6-ol]			< 4.00	< 4.00
COc1ccc2c3c1O[C@@H]1C[C@@H](O)C=C[C@]31CCN(/C(=N/C#N)SC)C2 [Example 27, Methyl (4aR,6R,8aR)-N11-cyano-6-hydroxy-3-methoxy-4a,5,9,10-tetrahydro-6H-[1]benzofuro [3a,3,2-ef][2]benzazepine-11(12H)-carboximidothioate]	< 4.00	< 4.00		
COc1ccc2c3c1O[C@@H]1C[C@@H](N)C=C[C@]31CCN(C)C2 [Example 28, (4aR,6R,8aR)-4a,5,9,10,11,12-hexahydro-3-methoxy-11-methyl-6H-benzofuro[3a,3,2-ef][2]benzazepin-6-amine, dihydrochloride]	< 4.00	< 4.00		
COc1ccc2c3c1O[C@@H]1C[C@H](O)C=C[C@]31CCN(CCCO)C2 [Example 29, (4aR,6S,8aR)-11-(3-hydroxypropyl)-3-methoxy-5,6,9,10,11,12-hexahydro-4aH-[1]benzofuro[3a,3,2-ef][2]benzazepin-6-ol]	< 4.00	< 4.00		
COc1ccc2c3c1O[C@H]1C[C@@H](O)C=C[C@@]31CCN(CC(N)=O)C2 [Example 34, 2-((4aS,6R,8aS)-6-hydroxy-3-methoxy-5,6,9,10-tetrahydro-4aH-[1]benzofuro[3a,3,2-ef][2]benzazepine-11(12H)-yl)acetamide]	< 4.00	4.11		
COc1ccc2c3c1O[C@H]1C[C@@H](O)C=C[C@@]31CCN(c1ncccn1)C2 [Example 37, (4aS,6R,8aS)-3-methoxy-11-(2-pyrimidinyl)-5,6,9,10,11,12-hexahydro-4aH-[1]benzofuro [3a,3,2-ef][2]benzazepin-6-ol]	< 4.00	< 4.00		
COc1ccc2c3c1O[C@H]1C[C@@H](O)C=C[C@@]31CCN(C(=O)CCC(=O)O)C2 [Example 39, ((4aS,6R,8aS)-4a,5,9,10,11,12-hexahydro-6-hydroxy-3-methoxy-6H-benzofuro[3a,3,2-ef][2]benzazepine-11--yl)gamma-oxobutyric acid]	< 4.00	< 4.00		
COc1ccc2c3c1O[C@H]1C[C@@H](O)C=C[C@@]31CCN(c1nc(Cl)nc(Cl)n1)C2 [Example 42, (4aS,6R,8aS)-11-(4,6-dichloro-1,3,5,-triazin-2-yl)-3-methoxy-5,6,9,10,11,12-hexahydro-4aH-[1]benzofuro[3a,3,2-ef][2]benzazepin-6-ol]	< 4.00	< 4.00		
COc1ccc2c3c1O[C@H]1C[C@@H](O)C=C[C@@]31CCN(CCCCN1CCCCC1)C2 [Example 50]			7.44	6.21
COc1cc(Br)c2c3c1O[C@H]1C[C@@H](O)C=C[C@@]31CCN(CCN1CCOCC1)C2 [Example 57, (4aS,6R,8aS)-1-bromo-4a,5,9,10,11,12-hexahydro-11-(2-(mopholin-4-yl)-ethyl)-3-methoxy-6H-[1]benzafuro[3a,3,2-ef][2]benzazepin-6-ol]			< 4.00	5.57
COc1ccc2c3c1O[C@@H]1C=C(c4ccccc4)C=C[C@@]31CCN(C)C2 [Example 59, (4aS,8aS)-D5,6-4a,5,9,10,11,12-hexahydro-11-methyl-3-methoxy-6-phenyl-6H-[1]benzofuro[3a,3,2-ef][2]benzazepine]	4.28	4.60		
COc1ccc2c3c1O[C@H]1C=C(C)C=C[C@@]31CCN(C)C2 [Example 60, (4aS,8aS)-D5,6--4a,5,9,10,11,12-hexahydro-6,11-dimethyl-3-methoxy-6H-[1]benzofuro[3a,3,2-ef][2]benzazepine]	4.10	3.70		
COc1ccc2c3c1O[C@H]1C=C(C(C)C)C=C[C@@]31CCN(C)C2 [Example 61, (4aS,8aS)-D5,6-4a,5,9,10,11,12-hexahydro-6-(isopropyl)-11-methyl-3-methoxy-6H-[1]benzofuro [3a,3,2-ef][2]benzazepine]	< 4.00	5.05		

From US20070105837A1, “Novel derivatives of 4a,5,9,10,11,12-hexahydrobenzofuro[3a,3,2][2]-benzazepine, method for the production thereof and use thereof in the production of medicaments” (priority 2003, published 2007)
